# Laboratory results from patent US6512166B1, “Combinations of fungal cell wall degrading enzyme and fungal cell membrane affecting compound” (priority 1991, dated 2003).
# Like-named read-outs stand apart in the source and are kept apart here.
# What was measured:
# Botrytis cinerea = assay: Inhibition of spore germination, Eppendorf tube assay (Examples I and II); format: cell-based; conditions: for inhibition at 0.5 µg/mL: read-out: % inhibition; for % inhibition: enzyme 0 μg ml^−1 (fungicide alone); for % inhibition / Ee, expected effect from an additive response according to Limpel's formula, percent inhibition / Io, percent inhibition observed: flusilazole 5 ng ml^−1, miconazole 0.5 μg ml^−1; for ED50 of fungicide (dose effective for 50% inhibition): Table 9
# [1] = test system: Fusarium oxysporum strain FOP1; assay: Inhibition of spore germination, ELISA plate assay (Examples V-XIV, XVII); format: cell-based; conditions: Table 28; concentration of flusilazole for 50% inhibition, alone or with enzyme at its ED10 concentration
# Protocol: (§1) The concentration where fungal cell wall degrading enzyme individually provides a specified percentage fungal inhibition or where antifungal fungal cell membrane affecting compound individually provides a specific percentage fungal inhibition can be determined as follows: Assays are performed under sterile conditions. Equal volumes of spore suspensions, 3× potato dextrose broth, and the test solution or suspension in 5 mM Tris-HCl (pH 6.0) or 5 mM potassium phosphate buffer (pH 6.7) are mixed. The control is the same as the test solution except for the control the antifungal agent is omitted. The assay mixtures (total volume 45 or 30 μl) are incubated on flat-bottomed ELISA plates, each containing 96 wells, with 2,000 to 3,000 spores per well, at 25° C. After 22 to 30 hours, the plates are placed under an inverted microscope. The percentage of conidia germinating is determined as the percentage of the first 100 spores randomly found in a well. In addition, the lengths of 20 germ tubes are measured and averaged. All experiments are performed twice, with three replicates for each treatment. The inhibition values obtained in the two experiments are combined and averaged, and standard deviations are calculated from the 6 data points. The values obtained for the control are taken as 0% inhibition and all other values are divided by the values obtained for the control and multiplied by 100% to obtain percent inhibition. Determination of concentration corresponding to a particular percent inhibition is carried out by subjecting dose-response curves to regression analysis by using a binomial regression of the third order, with R^2 ranging between 0.95 and 0.99.
# (§2) Assays were carried out by the procedure described in the summary of the invention section. Dose response curves were obtained by probit analysis of data collected from two separate experiments with each experiment involving three treatment replicates.
# (§3) Dose response curves were determined for each antifungal fungal cell membrane affecting compound and for each fungal cell wall degrading enzyme singly. Then each fungal cell wall degrading enzyme at a concentration giving 10% inhibition when used alone was combined with increasing amounts of antifungal fungal cell membrane affecting compound. Then the concentration of antifungal fungal cell membrane affecting compound causing the ED50 for each combination was calculated by probit analysis of data collected from two experiments with three treatment replicates for each experiment. Assays for inhibition of spore germination were carried out as described in the summary of invention section above.
# The relative level of synergism (RS below) for each combination was calculated by applying Limpel's formula: Ee=X+Y−(XY/100) as described in Richer, D. L, Pestic. Sci. 19, 309-315, 1987. In Limpel's formula, X and Y are the percentages of inhibition relative to each compound used alone and Ee is the expected effect for an additional (non-synergistic) effect. If the combination of the two agents produces an observed effect (Eo) greater than Ee, synergism exists, and as the difference between Eo and Ee increases, the level of synergism is greater. In this experiment, the X value (percentage inhibition by fungal cell wall degrading enzyme when used alone was chosen to be 10 (10% inhibition of spore germination when used alone) and the observed effect, Eo, was 50 (i.e., 50% inhibition of spore germination). The Y values were obtained from the determined concentrations of antifungal cell membrane affecting compound causing the ED50 for a combination and the dose response curves for the antifungal cell membrane affecting compound used alone—i.e., the Y value was the percent inhibition for the antifungal fungal cell membrane affecting compound when used alone for the concentration of antifungal fungal cell membrane affecting compound that was determined to cause the ED50 for the combination. Ee values were then calculated from Limpel's formula. […]
# B. cinerea strain 12 = assay: Inhibition of spore germination, ELISA plate assay (Examples III-XVI, XVIII); format: cell-based, Botrytis cinerea; conditions: Table 20; concentration of flusilazole for 50% inhibition, alone or with enzyme at its ED10 concentration
# Protocol: as §1, §2
# Each of 8 antifungal fungal cell membrane affecting compounds were used in combination with each of 8 or 6 fungal cell wall degrading enzymes to provide 50% inhibition (ED50) of B. cinerea strain 12 spore germination. Each fungal cell wall degrading enzyme was used at a concentration giving 10% inhibition of spore germination when used alone in combination with an amount of antifungal fungal cell membrane affecting compound so the combination gave 50% inhibition of spore germination.
# as §3
# The relative level of synergism (RS below) for each combination was calculated by applying Limpel's formula: Ee=X+Y−(XY/100) as described in Richer, D. L, Pestic. Sci. 19, 309-315, 1987. In Limpel's formula, X and Y are the percentages of inhibition relative to each compound used alone and Ee is the expected effect for an additional (non-synergistic) effect. If the combination of the two agents produces an observed effect (Eo) greater than Ee, synergism exists, and as the difference between Eo and Ee increases, the level of synergism is greater. […]
# [2] = Solubility, guidance for forming solutions
# Source text: Compositions for use in the systems herein are readily formulated by admixing the fungal cell wall degrading enzymes and the antifungal fungal cell membrane affecting compounds with non-toxic carriers appropriate for the particular use for a composition, e.g., agriculturally acceptable carriers for agricultural uses and pharmaceutically acceptable carriers for medicinal uses. They may be formulated as liquids (solutions or suspensions) or as solids. Since the fungal cell wall degrading enzymes need free water for activity, water must be present at the time of function. […] Water is a preferred vehicle where components are soluble in it. […] Organic solvents can also be used and may be required in some cases if a solution is desired. Guidance for forming solutions follows. […] Suspension can also be employed.
compound,measurement,setting,value
"C[Si](Cn1cncn1)(c1ccc(F)cc1)c1ccc(F)cc1 [Flusilazole, flusilazole]",inhibition at 5 ng/mL,"Botrytis cinerea; Botrytis cinerea, Table 5, endochitinase from G. virens strain 41 at 25 μg ml^−1, with flusilazole 5 ng ml^−1, miconazole 0.5 μg ml^−1 or none (enzyme alone)",89%
same,inhibition at 0.5 µg/mL,"Botrytis cinerea; Table 4, endochitinase from T. harzianum strain P1 at 75 μg ml^−1, with flusilazole 5 ng ml^−1, miconazole 0.5 μg ml^−1 or none (enzyme alone)",100%
same,% inhibition,Botrytis cinerea; Table 4,18%
same,% inhibition,Botrytis cinerea; Table 5,18%
same,inhibition at 0.5 µg/mL,"Botrytis cinerea; Table 6, chitobiosidase from T. harzianum strain P1 at 75 μg ml^−1, with flusilazole 5 ng ml^−1, miconazole 0.5 μg ml^−1 or none (enzyme alone)",100%
same,% inhibition,Botrytis cinerea; Table 6,18%
same,% inhibition,Botrytis cinerea; Table 7,18%
same,inhibition at 0.5 µg/mL,"Botrytis cinerea; Table 7, glucan 1,3-β-glucosidase from T. harzianum strain P1 at 100 μg ml^−1, with flusilazole 5 ng ml^−1, miconazole 0.5 μg ml^−1 or none (enzyme alone)",100%
same,ED50 of fungicide (dose effective for 50% inhibition),Botrytis cinerea; no endochitinase (0 μg ml^−1),60 ng/mL
same,ED50 of fungicide (dose effective for 50% inhibition),Botrytis cinerea; with endochitinase from T. harzianum strain P1 at 10 μg ml^−1,0.7 ng/mL
same,ED50 of fungicide (dose effective for 50% inhibition),Botrytis cinerea; with endochitinase from T. harzianum strain P1 at 25 μg ml^−1,0.3 ng/mL
same,ED50 of fungicide,"Botrytis cinerea; Table 10, no chitobiosidase (0 μg ml^−1)",60 ng/mL
same,ED50 of fungicide,"Botrytis cinerea; Table 10, with chitobiosidase from T. harzianum strain P1 at 25 μg ml^−1",1 ng/mL
same,ED50 of fungicide,"Botrytis cinerea; Table 10, with chitobiosidase from T. harzianum strain P1 at 50 μg ml^−1",0.4 ng/mL
same,ED50 of fungicide,"Botrytis cinerea; Table 10, with chitobiosidase from T. harzianum strain P1 at 75 μg ml^−1",0.35 ng/mL
same,ED50 of fungicide,"Botrytis cinerea; Table 10, with chitobiosidase from T. harzianum strain P1 at 100 μg ml^−1",0.3 ng/mL
same,ED50 of fungicide,"Botrytis cinerea; Table 11, no glucosidase (0 μg ml^−1)",60 ng/mL
same,ED50 of fungicide,"Botrytis cinerea; Table 11, with glucan 1,3-β-glucosidase from T. harzianum strain P1 at 25 μg ml^−1",3.3 ng/mL
same,ED50 of fungicide,"Botrytis cinerea; Table 11, with glucan 1,3-β-glucosidase from T. harzianum strain P1 at 50 μg ml^−1",1 ng/mL
same,ED50 of fungicide,"Botrytis cinerea; Table 11, with glucan 1,3-β-glucosidase from T. harzianum strain P1 at 75 μg ml^−1",0.17 ng/mL
same,ED50 of fungicide,"Botrytis cinerea; Table 12, no endochitinase (0 μg ml^−1)",60 ng/mL
same,ED50 of fungicide,"Botrytis cinerea; Table 12, with endochitinase from G. virens strain 41 at 25 μg ml^−1",2.5 ng/mL
same,ED50 of fungicide,"Botrytis cinerea; Table 12, with endochitinase from G. virens strain 41 at 50 μg ml^−1",1 ng/mL
same,ED50 of fungicide,"Botrytis cinerea; Table 12, with endochitinase from G. virens strain 41 at 75 μg ml^−1",4.5 ng/mL
same,ED50 of fungicide,"Botrytis cinerea; Table 12, with endochitinase from G. virens strain 41 at 100 μg ml^−1",0.22 ng/mL
same,"Ee, expected effect from an additive response according to Limpel's formula, percent inhibition",Botrytis cinerea; with Chitob. (P1) 25 μg ml^−1,27%
same,"Io, percent inhibition observed",Botrytis cinerea; with Endoc. (41) 25 pg ml^−1 (so in the source),67%
same,"Ee, expected effect from an additive response according to Limpel's formula, percent inhibition",Botrytis cinerea; with Endoc. (P1) 25 μg ml^−1,41%
same,"Ee, expected effect from an additive response according to Limpel's formula, percent inhibition",Botrytis cinerea; with Glucan. (P1) 25 μg ml^−1,22.1%
same,"Io, percent inhibition observed",Botrytis cinerea; with Glucan. (P1) 25 μg ml^−1,65%
same,ED50,[1],59.0 (51-65) ng ml^−1
same,ED50,B. cinerea strain 12,68 (61-85) ng ml^−1
same,solubility (solvent in which the substance dissolves),[2],dissolve in acetone
